What was measured:
Test in all cases: radiometric filter-binding kinase assay, Kinase HotSpot
Conditions in all cases: compound 0.5 µM; ATP 10 µM
[1] = target: NEK11 (human) (UniProt Q8NG66)
[2] = target: PRKD2 (human) (UniProt Q9BZL6)
[3] = target: DCLK2 (human) (UniProt Q8N568)
[4] = target: ACVR1 (human) (UniProt Q04771)
[5] = target: EPHA7 (human) (UniProt Q15375)
[6] = target: SRPK3 (human) (UniProt Q9UPE1)
[7] = target: NEK3 (human) (UniProt P51956)
[8] = target: STK4 (human) (UniProt Q13043)
[9] = target: BMX (human) (UniProt P51813)
[10] = target: ADRBK1 (human) (UniProt P25098)
[11] = target: STK17A (human) (UniProt Q9UEE5)
[12] = target: PKN2 (human) (UniProt Q16513)
[13] = target: CDK5 CDK5R1 p25 (human) (UniProt Q00535+Q15078)
[14] = target: FER (human) (UniProt P16591)
[15] = target: MET (human) (UniProt P08581)
[16] = target: HIPK3 (human) (UniProt Q9H422)
[17] = target: AURKA (human) (UniProt O14965)
[18] = target: SIK2 (human) (UniProt Q9H0K1)
[19] = target: PRKD3 (human) (UniProt O94806)
[20] = target: MARK4 (human) (UniProt Q96L34)
[21] = target: CSNK1G3 (human) (UniProt Q9Y6M4)
[22] = target: OXSR1 (human) (UniProt O95747)
[23] = target: DYRK1B (human) (UniProt Q9Y463)
[24] = target: INSR (human) (UniProt P06213)
[25] = target: DMPK (human) (UniProt Q09013)
[26] = target: EPHB1 (human) (UniProt P54762)
[27] = target: ABL2 (human) (UniProt P42684)
[28] = target: MAPK1 (human) (UniProt P28482)
[29] = target: YES1 (human) (UniProt P07947)
[30] = target: SGK3 (human) (UniProt Q96BR1)
[31] = target: CDK5 CDK5R1 p35 (human) (UniProt Q00535+Q15078)
[32] = target: BRSK1 (human) (UniProt Q8TDC3)
[33] = target: CDK9 CCNK (human) (UniProt O75909+P50750)
[34] = target: MAP3K9 (human) (UniProt P80192)
[35] = target: MYLK2 (human) (UniProt Q9H1R3)
[36] = target: IKBKB (human) (UniProt O14920)
[37] = target: PDGFRB (human) (UniProt P09619)
[38] = target: EPHB3 (human) (UniProt P54753)
[39] = target: STK16 (human) (UniProt O75716)
[40] = target: MAPK11 (human) (UniProt Q15759)
[41] = tested on: MKNK1 (human), Q9BUB5 [T385D; 165-205 del]
[42] = target: CLK1 (human) (UniProt P49759)

YES1 (human), sequence (P07947 whole entry, looked up): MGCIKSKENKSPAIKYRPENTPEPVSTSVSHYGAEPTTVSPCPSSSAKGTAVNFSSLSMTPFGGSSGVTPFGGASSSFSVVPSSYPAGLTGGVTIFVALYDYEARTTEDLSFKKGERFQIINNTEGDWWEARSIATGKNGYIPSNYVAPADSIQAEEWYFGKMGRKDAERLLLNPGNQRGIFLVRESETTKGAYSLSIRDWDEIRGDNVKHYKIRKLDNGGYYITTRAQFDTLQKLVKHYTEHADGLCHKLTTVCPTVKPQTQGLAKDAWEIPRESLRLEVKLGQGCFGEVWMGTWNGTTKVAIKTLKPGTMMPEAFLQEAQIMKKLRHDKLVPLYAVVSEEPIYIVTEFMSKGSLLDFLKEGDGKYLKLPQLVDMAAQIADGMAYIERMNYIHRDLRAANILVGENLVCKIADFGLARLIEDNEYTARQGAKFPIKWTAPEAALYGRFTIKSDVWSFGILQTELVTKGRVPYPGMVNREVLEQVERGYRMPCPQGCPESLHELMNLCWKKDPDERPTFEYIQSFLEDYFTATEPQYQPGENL
PRKD2 (human), sequence (Q9BZL6 whole entry, looked up): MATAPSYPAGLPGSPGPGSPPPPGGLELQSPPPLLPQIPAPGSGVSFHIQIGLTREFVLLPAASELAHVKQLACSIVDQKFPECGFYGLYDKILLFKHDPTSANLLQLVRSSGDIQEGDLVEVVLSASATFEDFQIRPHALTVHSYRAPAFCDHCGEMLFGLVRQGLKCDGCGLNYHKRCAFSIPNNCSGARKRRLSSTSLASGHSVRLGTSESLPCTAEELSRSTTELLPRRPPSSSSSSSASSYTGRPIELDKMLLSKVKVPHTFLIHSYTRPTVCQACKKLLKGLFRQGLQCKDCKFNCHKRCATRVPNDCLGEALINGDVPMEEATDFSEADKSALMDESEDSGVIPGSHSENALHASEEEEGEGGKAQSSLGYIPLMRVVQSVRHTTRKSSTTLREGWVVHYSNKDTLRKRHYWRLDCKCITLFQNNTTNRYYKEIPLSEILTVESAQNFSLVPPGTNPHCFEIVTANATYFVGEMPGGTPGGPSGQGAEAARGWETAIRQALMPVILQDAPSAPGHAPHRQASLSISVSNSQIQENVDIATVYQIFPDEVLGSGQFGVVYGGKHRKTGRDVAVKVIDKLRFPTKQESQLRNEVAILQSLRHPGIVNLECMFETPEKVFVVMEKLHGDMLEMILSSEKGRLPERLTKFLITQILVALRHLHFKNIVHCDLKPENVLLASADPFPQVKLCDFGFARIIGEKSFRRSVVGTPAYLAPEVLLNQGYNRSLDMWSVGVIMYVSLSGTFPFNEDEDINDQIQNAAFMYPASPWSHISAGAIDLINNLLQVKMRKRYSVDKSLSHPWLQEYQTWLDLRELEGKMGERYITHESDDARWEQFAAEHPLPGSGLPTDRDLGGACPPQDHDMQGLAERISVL
DMPK (human), sequence (Q09013 whole entry, looked up): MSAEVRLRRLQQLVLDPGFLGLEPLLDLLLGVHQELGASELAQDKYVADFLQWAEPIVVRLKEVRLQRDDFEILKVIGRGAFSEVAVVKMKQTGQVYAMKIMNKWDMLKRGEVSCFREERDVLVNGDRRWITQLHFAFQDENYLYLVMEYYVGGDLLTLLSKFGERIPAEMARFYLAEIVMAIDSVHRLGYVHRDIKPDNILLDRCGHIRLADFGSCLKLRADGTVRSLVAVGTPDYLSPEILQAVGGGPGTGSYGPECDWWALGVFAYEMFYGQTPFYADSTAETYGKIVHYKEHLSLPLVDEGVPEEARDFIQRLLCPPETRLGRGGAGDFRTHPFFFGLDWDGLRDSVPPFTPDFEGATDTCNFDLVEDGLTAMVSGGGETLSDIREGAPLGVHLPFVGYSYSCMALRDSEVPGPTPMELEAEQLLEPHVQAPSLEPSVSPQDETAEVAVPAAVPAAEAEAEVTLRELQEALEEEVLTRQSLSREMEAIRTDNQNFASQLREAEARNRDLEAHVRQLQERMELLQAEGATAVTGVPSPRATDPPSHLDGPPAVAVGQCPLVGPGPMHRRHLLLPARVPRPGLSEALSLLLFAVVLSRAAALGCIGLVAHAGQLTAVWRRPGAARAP
INSR (human), sequence (P06213 whole entry, looked up): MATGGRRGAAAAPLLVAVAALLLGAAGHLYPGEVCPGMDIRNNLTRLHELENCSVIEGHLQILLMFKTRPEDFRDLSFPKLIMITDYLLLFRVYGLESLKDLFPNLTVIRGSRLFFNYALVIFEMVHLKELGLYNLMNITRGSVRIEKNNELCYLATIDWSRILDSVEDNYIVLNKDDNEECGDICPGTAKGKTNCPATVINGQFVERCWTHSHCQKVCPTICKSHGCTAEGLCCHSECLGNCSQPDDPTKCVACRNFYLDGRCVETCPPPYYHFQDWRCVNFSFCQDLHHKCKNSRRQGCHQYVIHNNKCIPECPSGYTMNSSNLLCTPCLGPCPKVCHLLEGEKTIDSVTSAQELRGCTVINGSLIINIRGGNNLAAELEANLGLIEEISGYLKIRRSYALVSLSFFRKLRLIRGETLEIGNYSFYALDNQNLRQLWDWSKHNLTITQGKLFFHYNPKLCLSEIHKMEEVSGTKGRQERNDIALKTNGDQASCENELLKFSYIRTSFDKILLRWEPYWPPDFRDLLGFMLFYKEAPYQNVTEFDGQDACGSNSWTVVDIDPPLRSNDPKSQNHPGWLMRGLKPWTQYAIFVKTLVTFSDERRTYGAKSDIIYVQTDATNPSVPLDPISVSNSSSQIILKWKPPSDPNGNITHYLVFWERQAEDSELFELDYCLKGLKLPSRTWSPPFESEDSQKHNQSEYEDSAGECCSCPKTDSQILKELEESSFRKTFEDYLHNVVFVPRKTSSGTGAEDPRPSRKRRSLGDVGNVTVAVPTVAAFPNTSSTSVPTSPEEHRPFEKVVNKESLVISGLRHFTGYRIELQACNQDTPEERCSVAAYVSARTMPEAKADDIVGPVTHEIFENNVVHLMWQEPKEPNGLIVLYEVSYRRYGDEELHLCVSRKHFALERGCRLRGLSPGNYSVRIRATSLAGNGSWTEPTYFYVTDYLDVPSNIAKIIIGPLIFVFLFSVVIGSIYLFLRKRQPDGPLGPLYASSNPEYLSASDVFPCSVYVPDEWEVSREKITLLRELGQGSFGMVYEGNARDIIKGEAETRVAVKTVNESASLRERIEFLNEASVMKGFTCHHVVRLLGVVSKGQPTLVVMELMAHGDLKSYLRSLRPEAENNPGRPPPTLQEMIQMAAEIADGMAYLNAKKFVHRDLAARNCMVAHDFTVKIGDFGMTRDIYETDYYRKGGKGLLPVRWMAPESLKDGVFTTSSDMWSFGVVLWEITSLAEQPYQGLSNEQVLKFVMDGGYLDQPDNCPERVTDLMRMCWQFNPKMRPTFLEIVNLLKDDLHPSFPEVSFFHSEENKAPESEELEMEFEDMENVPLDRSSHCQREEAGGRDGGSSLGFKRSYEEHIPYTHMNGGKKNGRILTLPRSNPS
EPHB1 (human), sequence (P54762 whole entry, looked up): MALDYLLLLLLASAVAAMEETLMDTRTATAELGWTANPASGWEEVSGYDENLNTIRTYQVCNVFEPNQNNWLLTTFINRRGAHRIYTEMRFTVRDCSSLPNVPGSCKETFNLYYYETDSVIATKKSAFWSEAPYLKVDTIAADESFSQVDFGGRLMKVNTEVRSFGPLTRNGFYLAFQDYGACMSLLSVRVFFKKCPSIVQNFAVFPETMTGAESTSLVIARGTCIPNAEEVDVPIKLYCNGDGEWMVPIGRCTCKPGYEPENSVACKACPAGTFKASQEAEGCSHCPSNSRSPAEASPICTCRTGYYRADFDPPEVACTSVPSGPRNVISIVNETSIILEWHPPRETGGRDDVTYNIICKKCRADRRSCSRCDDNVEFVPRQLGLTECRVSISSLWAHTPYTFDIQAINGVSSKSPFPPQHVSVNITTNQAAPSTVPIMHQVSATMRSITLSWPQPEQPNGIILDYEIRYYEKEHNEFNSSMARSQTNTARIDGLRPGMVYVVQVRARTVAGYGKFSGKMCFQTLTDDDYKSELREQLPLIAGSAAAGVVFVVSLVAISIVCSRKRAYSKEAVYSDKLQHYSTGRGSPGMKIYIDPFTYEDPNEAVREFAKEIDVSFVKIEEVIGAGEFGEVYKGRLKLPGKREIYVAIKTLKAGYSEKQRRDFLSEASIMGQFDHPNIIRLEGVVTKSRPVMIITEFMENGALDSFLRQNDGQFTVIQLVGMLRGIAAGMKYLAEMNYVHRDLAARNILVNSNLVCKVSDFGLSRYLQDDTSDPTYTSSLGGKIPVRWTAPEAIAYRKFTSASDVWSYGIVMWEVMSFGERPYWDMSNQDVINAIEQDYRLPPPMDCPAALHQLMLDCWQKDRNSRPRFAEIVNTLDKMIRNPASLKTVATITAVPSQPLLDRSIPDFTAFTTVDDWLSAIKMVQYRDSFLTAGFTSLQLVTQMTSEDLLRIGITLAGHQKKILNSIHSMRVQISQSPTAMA
CDK5 CDK5R1 p25 (human), sequence (Q00535 whole entry, looked up): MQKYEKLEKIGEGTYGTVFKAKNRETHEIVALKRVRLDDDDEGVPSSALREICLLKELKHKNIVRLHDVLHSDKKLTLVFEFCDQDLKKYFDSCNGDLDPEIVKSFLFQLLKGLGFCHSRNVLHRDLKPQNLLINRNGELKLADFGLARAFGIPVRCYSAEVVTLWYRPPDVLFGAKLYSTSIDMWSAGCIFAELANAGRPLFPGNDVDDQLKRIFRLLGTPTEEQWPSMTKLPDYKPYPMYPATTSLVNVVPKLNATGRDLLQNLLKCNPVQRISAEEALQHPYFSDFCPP
CDK5 CDK5R1 p25 (human), sequence (Q15078 whole entry, looked up): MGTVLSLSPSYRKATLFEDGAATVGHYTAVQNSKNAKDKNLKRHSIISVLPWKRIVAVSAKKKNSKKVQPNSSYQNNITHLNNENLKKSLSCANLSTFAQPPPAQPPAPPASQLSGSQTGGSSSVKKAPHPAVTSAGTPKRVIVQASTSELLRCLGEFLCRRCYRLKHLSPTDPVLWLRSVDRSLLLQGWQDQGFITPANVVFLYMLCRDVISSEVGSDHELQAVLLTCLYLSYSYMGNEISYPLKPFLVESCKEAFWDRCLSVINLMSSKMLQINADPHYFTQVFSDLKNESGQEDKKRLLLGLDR

O=C1NC(=O)c2c1c1c3ccccc3[nH]c1n1cncc21
residual activity [1]: 99% | residual activity [2]: 69.4% | residual activity [3]: 82.3% | residual activity [4]: 103% | residual activity [5]: 78.8% | residual activity [6]: 75.7% | residual activity [7]: 89.3% | residual activity [8]: 42.7% | residual activity [9]: 91.7% | residual activity [10]: 107% | residual activity [11]: 36.6% | residual activity [12]: 95.5% | residual activity [13]: 89.4% | residual activity [14]: 47.9% | residual activity [15]: 93.4% | residual activity [16]: 66.9% | residual activity [17]: 34.8% | residual activity [18]: 91.9% | residual activity [19]: 47.7% | residual activity [20]: 26.8% | residual activity [21]: 87% | residual activity [22]: 97.2% | residual activity [23]: 65.9% | residual activity [24]: 17.9% | residual activity [25]: 101% | residual activity [26]: 94% | residual activity [27]: 79.9% | residual activity [28]: 125% | residual activity [29]: 79.9% | residual activity [30]: 111% | residual activity [31]: 67% | residual activity [32]: 22.5% | residual activity [33]: 83.8% | residual activity [34]: 72.5% | residual activity [35]: 33.7% | residual activity [36]: 95.9% | residual activity [37]: 68.4% | residual activity [38]: 79.7% | residual activity [39]: 70.9% | residual activity [40]: 94.5% | residual activity [41]: 56.3% | residual activity [42]: 84%

N#Cc1c[nH]c2c[nH]/c(=N\Cc3cccnc3)cc2/c1=N\c1ccc(F)c(Cl)c1
residual activity [1]: 87.1% | residual activity [2]: 99.7% | residual activity [3]: 97.2% | residual activity [4]: 95.6% | residual activity [5]: 83.7% | residual activity [6]: 96.4% | residual activity [7]: 56% | residual activity [8]: 100% | residual activity [9]: 84% | residual activity [10]: 95.7% | residual activity [11]: 79.6% | residual activity [12]: 85.9% | residual activity [13]: 78.3% | residual activity [14]: 82.9% | residual activity [15]: 94.9% | residual activity [16]: 96.5% | residual activity [17]: 98.1% | residual activity [18]: 97.6% | residual activity [19]: 90.4% | residual activity [20]: 96.4% | residual activity [21]: 103% | residual activity [22]: 87.7% | residual activity [23]: 65.2% | residual activity [24]: 85.1% | residual activity [25]: 104% | residual activity [26]: 93.1% | residual activity [27]: 87.4% | residual activity [28]: 105% | residual activity [29]: 93.6% | residual activity [30]: 91.5% | residual activity [31]: 80.4% | residual activity [32]: 94.5% | residual activity [33]: 97.3% | residual activity [34]: 87.5% | residual activity [35]: 96.2% | residual activity [36]: 103% | residual activity [37]: 101% | residual activity [38]: 98.5% | residual activity [39]: 93.8% | residual activity [40]: 102% | residual activity [41]: 73.2% | residual activity [42]: 91%

c1ccc2c(-c3ccncc3)c[nH]c2c1
residual activity [1]: 76.9% | residual activity [2]: 95.7% | residual activity [3]: 98.1% | residual activity [4]: 94.7% | residual activity [5]: 98.2% | residual activity [6]: 96% | residual activity [7]: 91.6% | residual activity [8]: 103% | residual activity [9]: 95.8% | residual activity [10]: 97.7% | residual activity [11]: 93% | residual activity [12]: 80.8% | residual activity [13]: 92% | residual activity [14]: 91.6% | residual activity [15]: 91.4% | residual activity [16]: 107% | residual activity [17]: 78% | residual activity [18]: 90.5% | residual activity [19]: 90.7% | residual activity [20]: 94.7% | residual activity [21]: 108% | residual activity [22]: 97.2% | residual activity [23]: 90.5% | residual activity [24]: 90.5% | residual activity [25]: 109% | residual activity [26]: 108% | residual activity [27]: 91.9% | residual activity [28]: 100% | residual activity [29]: 97.1% | residual activity [30]: 92.8% | residual activity [31]: 96% | residual activity [32]: 90.3% | residual activity [33]: 91.2% | residual activity [34]: 83.3% | residual activity [35]: 96.2% | residual activity [36]: 102% | residual activity [37]: 105% | residual activity [38]: 100% | residual activity [39]: 110% | residual activity [40]: 112% | residual activity [41]: 75.5% | residual activity [42]: 105%

O=C(c1cc2cc(O)ccc2[nH]1)c1cc2cc(O)ccc2[nH]1
residual activity [1]: 96.7% | residual activity [2]: 71.7% | residual activity [3]: 88.4% | residual activity [4]: 123% | residual activity [5]: 101% | residual activity [6]: 99.4% | residual activity [7]: 111% | residual activity [8]: 33.7% | residual activity [9]: 80.6% | residual activity [10]: 98.2% | residual activity [11]: 51.7% | residual activity [12]: 97.1% | residual activity [13]: 52.6% | residual activity [14]: 86.6% | residual activity [15]: 89.2% | residual activity [16]: 97.3% | residual activity [17]: 71.6% | residual activity [18]: 78.3% | residual activity [19]: 54.9% | residual activity [20]: 55.3% | residual activity [21]: 77.2% | residual activity [22]: 105% | residual activity [23]: 92% | residual activity [24]: 93.8% | residual activity [25]: 96.9% | residual activity [26]: 97% | residual activity [27]: 27.2% | residual activity [28]: 113% | residual activity [29]: 18.8% | residual activity [30]: 113% | residual activity [31]: 57.3% | residual activity [32]: 53.6% | residual activity [33]: 49.5% | residual activity [34]: 42.6% | residual activity [35]: 21.1% | residual activity [36]: 91.3% | residual activity [37]: 41.7% | residual activity [38]: 92.3% | residual activity [39]: 54.6% | residual activity [40]: 95.7% | residual activity [41]: 83.6% | residual activity [42]: 82.1%
